Measurements as given in patent publication US6482799B1, “Self-preserving multipurpose ophthalmic solutions incorporating a polypeptide antimicrobial” (The Regents of the University of California, priority 1999, dated 2002).

What was measured:
[1] = tested on: P. aeruginosa (ATCC 27853); assay: Protocol 3 time-dependent antimicrobial activity at one dose level; type: cell-based, Pseudomonas aeruginosa; conditions: for Bacterial growth, Buffer and L-indolicidin 50 μg/ml: 100 mM sodium phosphate buffer
Method: The objective of this protocol is to establish a procedure for determining the antimicrobial activity of indolicidin (e.g., L-IND) at 50 μg/ml over an extended exposure time up to 24 hours at room temperature. It is believed that this procedure more closely mimics the recommended use of lens-care products.
Exposure of the test organism to indolicidin occurs in a buffered solution for up to 24 hours with sampling for viability at different time intervals. Polypropylene 96-well microtiter plates and microcentrifuge tubes are used for exposure and dilution of indolicidin, respectively.
The following materials are used: sterile glass tubes containing 5 ml of Mueller-Hinton Broth (MHB), Mueller-Hinton agar plates, sterile 96-well polypropylene microtiter plates, and sterile polypropylene microcentrifuge tubes.
One or more of the following microorganisms are used in assays using this protocol or modification of this protocol: Pseudomonas aeruginosa (ATCC 9027), Pseudomonas aeruginosa (ATCC 27853), and S. aureus (ATCC 6538).
Five 5 ml of MHB tubes are innoculated with the tester strain(s) from MHA plates and grown overnight at 37° C. on a shaker (180 rpm). A micropipet tip is prewet for at least 2 minutes with 100 μl of the stock solution of indolicidin (e.g., L-IND). The test article is dispensed back in the stock solution vial and the pipette is reset to a volume of 10 μl. Polypropylene microcentrifuge tubes are used to dilute the stock of indolicidin (10 mg/ml) 10-fold in sterile water. To obtain a 10× solution of indolicidin with a dose level equivalent to 50 μg/ml dose level dilute 10 μl of the stock solution of indolicidin in 90 μl of sterile water. (The concentration of indolicidin in the final exposure volume of 100 μl will be 5 μg when 10 μl of the 10× solution is added to 100 μl of bacterial suspension). […]
Survival is determined by counting the colonies appearing on plates after overnight incubation at 37° C. The results are expressed as CFU/ml and survival is expressed as the percent of the bacteria that survived the treatment. […]

[2] = 4.97 mg dry powder
Method: 4.97 mg of L-IND #036752, stored at 4° C. in a desiccation) was weighed into a polypropylene microfuge and dissolved in 0.01% acetic acid.

## CC[C@H](C)[C@H](N)C(=O)N[C@@H](CC(C)C)C(=O)N1CCC[C@H]1C(=O)N[C@@H](Cc1c[nH]c2ccccc12)C(=O)N[C@@H](CCCCN)C(=O)N[C@@H](Cc1c[nH]c2ccccc12)C(=O)N1CCC[C@H]1C(=O)N[C@@H](Cc1c[nH]c2ccccc12)C(=O)N[C@@H](Cc1c[nH]c2ccccc12)C(=O)N1CCC[C@H]1C(=O)N[C@@H](Cc1c[nH]c2ccccc12)C(=O)N[C@@H](CCCNC(=N)N)C(=O)N[C@@H](CCCNC(=N)N)C(N)=O [L-indolicidin, H2N-ILPWKWPWWPWRR-CONH2]
[1]; 50 μg/ml, 100 mM sodium phosphate buffer pH 7.4, all time points 0-24 hours
  survival: no survival
[1]; incubation time 0 hr
  Bacterial growth, Buffer and L-indolicidin 50 μg/ml: 0
[1]; incubation time 24 hr
  Bacterial growth, Buffer and L-indolicidin 50 μg/ml: 0
[2]
  Solubility in 0.01% acetic acid: went into solution immediately
